From US20260325685A1, “Radiopharmaceutical Compositions Targeting Carbonic Anhydrase IX and Uses Thereof” (RayzeBio, Inc., priority 2023, published 2026)
Where two headings read alike, the source gives them in different places.

Assays:
[1] = target: T1, human CA-XII (Homo sapiens, UniProt O43570); assay: Surface Plasmon Resonance (SPR) binding kinetics to recombinant human CA-XII (Biacore 8K, single-cycle kinetics, 1:1 binding model)
T1 construct: purchased Creative BioMart CA12-261H
In short: (§1)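 Streptavidin capture, 1200-1800 RU; capture injection 180 s (CA-IX) vs 75 s (CA-XII). Analyte 100-0.39 nM, 9 conc., PBS-P+ pH 7.4 + 1% DMSO, 25° C. On 120 s, off 1200 s; ka/kd after reference subtraction and DMSO correction.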

[2] = target: T2, human CA-IX (Homo sapiens, UniProt Q16790); assay: Surface Plasmon Resonance (SPR) binding kinetics to recombinant human CA-IX (Biacore 8K, single-cycle kinetics, 1:1 binding model)
T2 construct: purchased Acro CA9-H82E3
In short: as §1

[3] = Chelated Metal: Lu-175, 25° C., pH 7.4, read-out: CAXII KD
[4] = Chelated Metal: Lu-175; SPR, 25° C., pH 7.4; read-out: CAIX KD
[5] = read-out: CAXII KD, Chelated Metal: Lu-175, 25° C., pH 7.4
[6] = read-out: CAIX KD; Chelated Metal: Lu-175; SPR, 25° C., pH 7.4

T1 sequence (O43570 25-354): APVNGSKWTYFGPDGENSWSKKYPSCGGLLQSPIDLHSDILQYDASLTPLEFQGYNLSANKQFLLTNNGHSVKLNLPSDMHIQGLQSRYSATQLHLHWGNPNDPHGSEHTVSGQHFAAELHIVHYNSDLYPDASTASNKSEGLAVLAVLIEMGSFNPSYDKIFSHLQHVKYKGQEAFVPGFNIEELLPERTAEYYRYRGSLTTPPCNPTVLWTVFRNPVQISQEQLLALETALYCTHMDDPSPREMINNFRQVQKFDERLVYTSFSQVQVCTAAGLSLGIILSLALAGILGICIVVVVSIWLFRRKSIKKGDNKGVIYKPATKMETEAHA

Compound | Kd [1, 3] | Kd [2, 4] | further results
CC(CCC(=O)N[C@@H](CC(=O)N[C@@H](CC(=O)N1CCN(C(=O)CN2CCN(CC(=O)O)CCN(CC(=O)O)CCN(CC(=O)O)CC2)C[C@H]1C(=O)NCCn1cc(C23CC(c4cn5nc(S(N)(=O)=O)sc5n4)(C2)C3)nn1)C(=O)O)C(=O)O)(c1ccc(O)cc1)c1ccc(O)cc1.[Lu+3] [Compound 107.27] | < 1 nM | < 1 nM | –
NS(=O)(=O)c1nnc(NC(=O)C23CCC(c4cn(CCNC(=O)[C@@H]5CN(C(=O)CN6CCN(CC(=O)O)CCN(CC(=O)O)CCN(CC(=O)O)CC6)CCN5C(=O)CC[C@H](NC(=O)C[C@H](NC(=O)c5ccc(C6CC6)nc5)C(=O)O)C(=O)O)nn4)(CC2)CC3)s1.[Lu+3] [Compound 109.56] | 1 to 2.5 nM | < 1 nM | –
NS(=O)(=O)c1nnc(NC(=O)C23CC(c4cn(CCNC(=O)[C@@H]5CN(C(=O)CN6CCN(CC(=O)O)CCN(CC(=O)O)CCN(CC(=O)O)CC6)CCN5C(=O)C[C@H](NC(=O)C[C@H](NC(=O)c5cccc(C6CC6)c5)C(=O)O)C(=O)O)nn4)(C2)C3)s1.[Lu+3] [Compound 109] | – | – | Kd [1, 5]: 2.5 to 10 nM; Kd [2, 6]: < 1 nM
CC(CCC(=O)N1CCC[C@@H]1C(=O)N[C@@H](CC(=O)N1CCN(C(=O)CN2CCN(CC(=O)O)CCN(CC(=O)O)CCN(CC(=O)O)CC2)C[C@@H]1C(=O)NCCn1cc(C23CC(C(=O)Nc4nnc(S(N)(=O)=O)s4)(C2)C3)nn1)C(=O)O)(c1ccc(O)cc1)c1ccc(O)cc1.[Lu+3] [Compound 108.5] | > 10 nM | 2.5 to 10 nM | –
NS(=O)(=O)c1nnc(NC(=O)C23CCC(c4cn(CCNC(=O)[C@@H]5CN(C(=O)CN6CCN(CC(=O)O)CCN(CC(=O)O)CCN(CC(=O)O)CC6)CCN5C(=O)CC[C@H](NC(=O)C[C@H](NC(=O)CCC5CC5)C(=O)O)C(=O)O)nn4)(CC2)CC3)s1.[Lu+3] [Compound 109.48] | < 1 nM | < 1 nM | –
NS(=O)(=O)c1nnc(NC(=O)C23CC(c4cn(CCNC(=O)[C@H]5CN(C(=O)CN6CCN(CC(=O)O)CCN(CC(=O)O)CCN(CC(=O)O)CC6)CCN5C(=O)[C@@H]5COCCN5C(=O)CCc5n[nH]c6ccccc56)nn4)(C2)C3)s1.[Lu+3] [Compound 108.1] | > 10 nM | 2.5 to 10 nM | –
CC(CCCC(=O)N1CCC(C(N)=O)(C(=O)NCC(=O)N2CCN(C(=O)CN3CCN(CC(=O)O)CCN(CC(=O)O)CC3)C[C@@H]2C(=O)NCCn2cc(C34CC(C(=O)Nc5nnc(S(N)(=O)=O)s5)(C3)C4)nn2)CC1)(c1ccc(O)cc1)c1ccc(O)cc1.[Cu+2] [Compound 126.1] | – | – | Kd ([1]; Chelated Metal: Cu (cold), 25° C., pH 7.4, read-out: CAXII KD): > 10 nM; Kd ([2]; Chelated Metal: Cu (cold); SPR, 25° C., pH 7.4; read-out: CAIX KD): < 1 nM
NS(=O)(=O)c1nnc(NC(=O)C23CC(c4cn(CCNC(=O)[C@@H]5CN(C(=O)CN6CCN(CC(=O)O)CCN(CC(=O)O)CCN(CC(=O)O)CC6)CCN5C(=O)C[C@H](NC(=O)C[C@H](NC(=O)Cc5n[nH]c6ccccc56)C(=O)O)C(=O)O)nn4)(C2)C3)s1.[Lu+3] [Compound 109.10] | 2.5 to 10 nM | < 1 nM | –
CC(CCC(=O)N[C@@H](CC(=O)N[C@@H](CC(=O)N[C@@H](CCCn1cc(C2CCC(C(=O)Nc3nnc(S(N)(=O)=O)s3)CC2)nn1)C(=O)NCCOCCOCCNC(=O)CN1CCN(CC(=O)O)CCN(CC(=O)O)CCN(CC(=O)O)CC1)C(=O)O)C(=O)O)(c1ccc(O)cc1)c1ccc(O)cc1.[Lu+3] (stereo partly drawn) [Compound 100.3] | 2.5 to 10 nM | < 1 nM | –
NS(=O)(=O)c1nnc(NC(=O)C23CC(c4cn(CCNC(=O)[C@@H]5CN(C(=O)CN6CCN(CC(=O)O)CCN(CC(=O)O)CCN(CC(=O)O)CC6)CCN5C(=O)C[C@H](NC(=O)C[C@H](NC(=O)c5n[nH]c6ccccc56)C(=O)O)C(=O)O)nn4)(C2)C3)s1.[Lu+3] [Compound 109.7] | 2.5 to 10 nM | < 1 nM | –
NS(=O)(=O)c1nnc(NC(=O)C23CC(c4cn(CCNC(=O)[C@@H]5CN(C(=O)CN6CCN(CC(=O)O)CCN(CC(=O)O)CCN(CC(=O)O)CC6)CCN5C(=O)C[C@H](NC(=O)C[C@H](NC(=O)CCc5ccc(O)cc5)C(=O)O)C(=O)O)nn4)(C2)C3)s1.[Lu+3] [Compound 109.5] | 2.5 to 10 nM | 1 to 2.5 nM | –
CC(CCC(=O)N[C@@H](CC(=O)N[C@@H](CC(=O)N[C@@H](CCCCn1cc(C23CCC(C(=O)Nc4nnc(S(N)(=O)=O)s4)(CC2)C3)nn1)C(=O)N1CC2(CN(C(=O)CN3CCN(CC(=O)O)CCN(CC(=O)O)CCN(CC(=O)O)CC3)C2)C1)C(=O)O)C(=O)O)(c1ccc(O)cc1)c1ccc(O)cc1.[Lu+3] [Compound 100.10] | < 1 nM | < 1 nM | –
CC(CCC(=O)N[C@@H](CC(=O)N[C@@H](CC(=O)N1CCN(C(=S)Nc2ccc3c(c2)OCCN(Cc2cccc(C(=O)O)n2)CCOCCOCCN(Cc2cccc(C(=O)O)n2)CCO3)C[C@H]1C(=O)NCCn1cc(C23CC(C(=O)Nc4nnc(S(N)(=O)=O)s4)(C2)C3)nn1)C(=O)O)C(=O)O)(c1ccc(O)cc1)c1ccc(O)cc1 [Compound 130] | – | – | Kd ([1]; Chelated Metal: None, 25° C., pH 7.4, read-out: CAXII KD): 2.5 to 10 nM; Kd ([2]; Chelated Metal: None; SPR, 25° C., pH 7.4; read-out: CAIX KD): < 1 nM; Ratio (CAXII/CAIX) ([2]; KD ratio CAXII/CAIX; Chelated Metal: None): *** (10 < *** ≤ 50)
NC(=O)C1(C(=O)NCC(=O)N2CCN(C(=O)CN3CCN(CC(=O)O)CCN(CC(=O)O)CCN(CC(=O)O)CC3)C[C@H]2C(=O)NCCn2cc(C34CC(C(=O)Nc5nnc(S(N)(=O)=O)s5)(C3)C4)nn2)CCN(C(=O)CCn2nc(-c3ccc(O)cc3)c3ccc(O)cc32)CC1.[Lu+3] [Compound 107.52] | > 10 nM | 1 to 2.5 nM | –
CC(CCC(=O)N[C@@H](CC(=O)N[C@@H](CC(=O)N1CCN(C(=O)[C@H](CCC(=O)NCCOCCOCCOCCOCCOCCOCCOCCOCCC(=O)N[C@@H](CCCCNC(=O)CCCc2ccc(I)cc2)C(=O)O)NC(=O)CN2CCN(CC(=O)O)CCN(CC(=O)O)CCN(CC(=O)O)CC2)C[C@H]1C(=O)NCCn1cc(C23CC(C(=O)Nc4nnc(S(N)(=O)=O)s4)(C2)C3)nn1)C(=O)O)C(=O)O)(c1ccc(O)cc1)c1ccc(O)cc1.[Lu+3] (racemic) [Compound 125] | – | – | Kd [1, 5]: > 10 nM; Kd [2, 6]: 1 to 2.5 nM
CC(CCC(=O)N1CCN(C(=O)CN2CCN(CC(=O)O)CCN(CC(=O)O)CCN(CC(=O)O)CC2)C[C@H]1C(=O)N[C@@H](CC(=O)N1CCOC[C@@H]1Cn1cc(C23CC(C(=O)Nc4nnc(S(N)(=O)=O)s4)(C2)C3)nn1)C(=O)O)(c1ccc(O)cc1)c1ccc(O)cc1.[Lu+3] [Compound 118.2] | > 10 nM | 1 to 2.5 nM | –
CC(CCCC(=O)N1CCC(C(N)=O)(C(=O)NCC(=O)N2CCN(C(=O)CCOCCOCCOCCOCCN(CCOCCOCCOCCOCCC(=O)N3CCN(C(=O)CNC(=O)C4(C(N)=O)CCN(C(=O)CCCC(C)(c5ccc(O)cc5)c5ccc(O)cc5)CC4)[C@H](C(=O)NCCn4cc(C56CC(C(=O)Nc7nnc(S(N)(=O)=O)s7)(C5)C6)nn4)C3)C(=O)CNC(=O)CN3CCN(CC(=O)O)CCN(CC(=O)O)CCN(CC(=O)O)CC3)C[C@H]2C(=O)NCCn2cc(C34CC(C(=O)Nc5nnc(S(N)(=O)=O)s5)(C3)C4)nn2)CC1)(c1ccc(O)cc1)c1ccc(O)cc1.[Lu+3] [Compound 131] | – | – | Kd [1, 5]: 2.5 to 10 nM; Kd [2, 6]: < 1 nM
NS(=O)(=O)c1nnc(NC(=O)C23CC(c4cn(CCNC(=O)[C@@H]5CN(C(=O)CN6CCN(CC(=O)O)CCN(CC(=O)O)CCN(CC(=O)O)CC6)CCN5C(=O)CNC(=O)C5(C(=O)O)CCN(C(=O)c6n[nH]c7ccccc67)CC5)nn4)(C2)C3)s1.[Lu+3] [Compound 112.10] | > 10 nM | < 1 nM | –
CC(CCC(=O)N[C@@H](CC(=O)N[C@@H](CC(=O)N1CCN(C(=O)CN2CCN(CC(=O)O)CCN(CC(=O)O)CCN(CC(=O)O)CC2)C[C@H]1C(=O)NCCn1cc(COc2ccc3nc(S(N)(=O)=O)sc3c2)nn1)C(=O)O)C(=O)O)(c1ccc(O)cc1)c1ccc(O)cc1.[Lu+3] [Compound 107.26] | > 10 nM | < 1 nM | –
